Counter-ions that a name gives are not always drawn. Each block holds one compound with its values, some of them ahead of it.
Molecular target: human Factor Xa (Homo sapiens, UniProt P00742)
Assay: In vitro assay for inhibition of Factor Xa (2), fluorogenic assay
Type: biochemical
Settings: substrate Rhodamine 110, bis-(CBZ-glycylglycyl-L-arginine amide 10 μM), Ki calculated from IC50
Method: In Vitro Assay for Inhibition of Factor Xa (2)
All other compounds of the present invention were tested for their Factor Xa inhibitory activity as determined in vitro by their ability to inhibit human Factor Xa in a fluorogenic assay, using Rhodamine 110, bis-(CBZ-glycylglycyl-L-arginine amide as the fluorogenic substrate. Compounds were diluted from a 10 mM stock solution in dimethylsulfoxide at appropriate concentrations. Assay was performed at room temperature using buffer consisting of: 50 mM Tris-HCl, 150 mM NaCl, 5 mM CaCl2, pH 7.4. containing human Factor Xa (final conc. Of 0.0003U.ml−1). Compound and enzyme were preincubated for 15 min prior to addition of the substrate (final conc. of 10 μM). The reaction was stopped after 3 hrs with the addition of H-D-PHE-PRO-ARG-Chloromethylketone. […] To obtain IC50 values the data were analysed using ActivityBase® and XLfit®.
Calculation of Ki values:
Ki=IC50/(1+[Substrate]/Km)
The Ki value for the above assay can be obtained by dividing the IC50 value by 1.6.

human Factor Xa, sequence (P00742 235-488 limits assumed): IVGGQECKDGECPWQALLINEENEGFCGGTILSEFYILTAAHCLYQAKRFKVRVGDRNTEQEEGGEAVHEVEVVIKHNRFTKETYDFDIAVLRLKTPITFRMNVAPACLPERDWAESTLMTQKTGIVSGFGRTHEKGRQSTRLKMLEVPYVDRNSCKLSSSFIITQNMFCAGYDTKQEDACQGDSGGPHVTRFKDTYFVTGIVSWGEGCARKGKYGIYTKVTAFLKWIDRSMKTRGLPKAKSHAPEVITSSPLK
human Factor Xa, sequence (P00742 41-179 partner limits assumed): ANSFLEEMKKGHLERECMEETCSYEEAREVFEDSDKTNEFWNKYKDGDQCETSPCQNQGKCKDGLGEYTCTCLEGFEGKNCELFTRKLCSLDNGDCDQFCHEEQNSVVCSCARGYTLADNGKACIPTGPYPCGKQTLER

Ki: < 200 nM
SMILES: Cc1cscc1-c1ccc(N2CC[C@H](NS(=O)(=O)c3ccc4cc(Cl)ccc4c3)C2=O)c(F)c1 [Example 69, 6-Chloro-N-{(3S)-1-[2-fluoro-4-(4-methylthien-3-yl)phenyl]-2-oxopyrrolidin-3-yl}naphthalene-2-sulfonamide]

Ki: < 20 nM
SMILES: Cc1noc(C)c1-c1ccc(N2CC[C@H](NS(=O)(=O)c3ccc4cc(Cl)ccc4c3)C2=O)c(F)c1 [Example 72, 6-Chloro-N-{(3S)-1-[4-(3,5-dimethylisoxazol-4-yl)-2-fluorophenyl]-2-oxopyrrolidin-3-yl}naphthalene-2-sulfonamide]

Ki: < 10 nM
SMILES: Cn1ccnc1-c1ccc(N2CC[C@H](NS(=O)(=O)c3ccc4cc(Cl)ccc4c3)C2=O)c(F)c1 [Example 77, 6-Chloro-N-{(3S)-1-[2-fluoro-4-(1-methyl-1H-imidazol-2-yl)phenyl]-2-oxopyrrolidin-3-yl}naphthalene-2-sulfonamide]

Ki: < 10 nM
SMILES: C/C(=C\S(=O)(=O)N[C@H]1CCN(c2ccc(I)cn2)C1=O)c1ccc(Cl)s1 [Example 136]

Ki: < 200 nM
SMILES: O=C1[C@@H](NS(=O)(=O)c2ccc3cc(Cl)ccc3c2)CCN1c1ccc(-c2cncnc2)cc1F [Example 63, 6-Chloro-N-[(3S)-1-(2-fluoro-4-pyrimidin-5-ylphenyl)-2-oxopyrrolidin-3-yl]naphthalene-2-sulfonamide]

Ki: < 10 nM
SMILES: Cc1cn(-c2ccc(N3CC[C@H](NS(=O)(=O)c4ccc5cc(Cl)ccc5c4)C3=O)c(F)c2)cn1 [Example 128, 6-Chloro-N-{(3S)-1-[2-fluoro-4-(4-methyl-1H-imidazol-1-yl)phenyl]-2-oxopyrrolidinyl}-2-naphthalenesulfonamide]

Ki: < 200 nM
SMILES: CC(=O)c1ccc(N2CC[C@H](NS(=O)(=O)/C=C/c3ccc(Cl)s3)C2=O)nc1 [Example 113, (E)-N-[(3S)-1-(5-Acetylpyridin-2-yl)-2-oxopyrrolidin-3yl]-2-(5-chlorothien-2-yl)ethenesulfonamide]

Ki: < 10 nM
SMILES: COc1ccncc1-c1ccc(N2CC[C@H](NS(=O)(=O)c3ccc4cc(Cl)ccc4c3)C2=O)c(F)c1 [Example 62, 6-Chloro-N-{(3S)-1-[2-fluoro-4-(4-methoxypyridin-3-yl)phenyl]-2-oxopyrrolidin-3-yl}naphthalene-2-sulfonamide]

Ki: < 1000 nM
SMILES: O=C1[C@@H](NS(=O)(=O)c2ccc3cc(Cl)ccc3c2)CCN1c1ccccc1F [Example 101, 6-Chloro-N-[(3S)-1-(2-fluorophenyl)-2-oxopyrrolidin-3-yl]naphthalene-2-sulfonamide]

Ki: < 1000 nM
SMILES: CC(C)N(C)C(=O)c1ccc(N2CC[C@H](NS(=O)(=O)c3cc4ccc(Cl)cc4s3)C2=O)c(F)c1 [Example 111, 4-((3S)-3-{[(6-Chloro-1-benzothien-2-yl)sulfonyl]amino}-2-oxopyrrolidin-1-yl)-3-fluoro-N-isopropyl-N-methylbenzamide]

Ki: < 10 nM
SMILES: C/C(=C\S(=O)(=O)N[C@H]1CCN(c2ccc(-n3ccnc3C[N+](C)(C)CC(N)=O)cc2F)C1=O)c1ccc(Cl)s1 [Example 142, 2-Amino-N-[(1-{4-[(3S)-3-({[(1E)-2-(5-chlorothien-2-yl)prop-1-enyl]sulfonyl}amino)-2-oxopyrrolidin-1-yl]-3-fluorophenyl}-1H-imidazol-2-yl)methyl]-N,N-dimethyl-2-oxoethanaminium formate]

Ki: < 10 nM
SMILES: C/C(=C\S(=O)(=O)N[C@H]1CCN(c2ccc(C(=O)N(C)C)cc2F)C1=O)c1ccc(Cl)s1 [Example 110, 4-[(3S)-3({[(1E)-2-(5-Chlorothien-2-yl)prop-1-enyl]sulfonyl}amino)-2-oxopyrrolidin-1-yl]-3-fluoro-N,N-dimethylbenzamide]

Ki: < 10 nM
SMILES: N#Cc1ncccc1-c1ccc(N2CC[C@H](NS(=O)(=O)c3ccc4cc(Cl)ccc4c3)C2=O)c(F)c1 [Example 79, 6-Chloro-N-{(3S)-1-[4-(2-cyanopyridin-3-yl)-2-fluorophenyl-]-2-oxopyrrolidin-3-yl}naphthalene-2-sulfonamide]

Ki: < 10 nM
SMILES: C[N+](C)(CC(N)=O)Cc1nccn1-c1ccc(N2CC[C@H](NS(=O)(=O)CCc3ccc(Cl)s3)C2=O)c(F)c1 [Example 143, 2-Amino-N-[(1-{4-[(3S)-3-({[2-(5-chlorothien-2-yl)ethyl]sulfonyl}amino)-2-oxopyrrolidin-1-yl]-3-fluorophenyl}-1H-imidazol-2-yl)methyl]-N,N-dimethyl-2-oxoethanaminium Formate]

Ki: < 10 nM
SMILES: CN(C)C(=O)c1ccc(N2CC[C@H](N(CC(N)=O)S(=O)(=O)/C=C/c3ccc(Cl)s3)C2=O)c(F)c1 [Example 134, 4-[(3S)-3-((2-Amino-2-oxoethyl){[(E)-2-(5-chlorothien-2-yl)ethenyl]sulfonyl}amino)-2-oxopyrrolidin-1-yl]-3-fluoro-N,N-dimethylbenzamide]

More lines, now with the values behind:

SMILES: CS(=O)(=O)c1ccccc1-c1ccc(N2CC[C@H](NS(=O)(=O)c3cc4ccc(Cl)cc4s3)C2=O)c(F)c1 [Example 11, 6-Chloro-N-{(3S)-1-[3-fluoro-2′-(methylsulfonyl)-1,1′-biphenyl-4-yl]-2-oxopyrrolidin-3-yl}-1-benzothiophene-2-sulfonamide]
Ki: < 10 nM

SMILES: CC(C)(C)OC(=O)CN([C@H]1CCN(c2ccc(-c3ccccc3S(C)(=O)=O)cc2F)C1=O)S(=O)(=O)/C=C/c1ccc(Cl)s1 [Example 47, tert-Butyl ({[(E)-2-(5-chlorothien-2-yl)ethenyl]sulfonyl}{(3S)-1-[3-fluoro-2′-(methylsulfonyl)-1,1′-biphenyl-4-yl]-2-oxopyrrolidin-3-yl}amino)acetate]
Ki: < 10 nM

SMILES: C/C(=C\S(=O)(=O)N[C@H]1CCN(c2ccc(-c3ccccc3S(C)(=O)=O)cc2F)C1=O)c1ccc(Cl)s1 [Example 39, (1E)-2-(5-Chlorothien-2-yl)-N-{(3S)-1-[3-fluoro-2′-(methylsulfonyl)-1,1′-biphenyl-4yl]-2-oxopyrrolidin-3-yl}prop-1-ene-1-sulfonamide]
Ki: < 10 nM

SMILES: N#Cc1ccccc1-c1ccc(N2CC[C@H](NS(=O)(=O)/C=C/c3ccc(Cl)s3)C2=O)nc1 [Example 26, (E)-2-(5-Chlorothien-2-yl)-N-{(3S)-1-[5-(2-cyanophenyl)pyridin-2yl]-2-oxopyrrolidin-3-yl}ethenesulfonamide]
Ki: < 10 nM

SMILES: COc1ncc(-c2ccc(N3CC[C@H](NS(=O)(=O)c4ccc5cc(Cl)ccc5c4)C3=O)c(F)c2)c(OC)n1 [Example 56, 6-Chloro-N-{(3S)-1-[4-(2,4-dimethoxypyrimidin-5-yl)-2-fluorophenyl]oxopyrrolidin-3-yl}naphthalene-2-sulfonamide]
Ki: < 200 nM

SMILES: CS(=O)(=O)c1ccccc1-c1ccc(N2CC[C@H](NS(=O)(=O)c3cc4cc(Cl)ccc4o3)C2=O)c(F)c1 [Example 5, 5-Chloro-N-{(3S)-1-[3-fluoro-2′-(methylsulfonyl)-1,1′-biphenyl-4-yl]-2-oxopyrrolidin-3-yl}-1-benzofuran-2-sulfonamide]
Ki: < 10 nM

SMILES: NC(=O)c1cccc(-c2ccc(N3CC[C@H](NS(=O)(=O)c4ccc5cc(Cl)ccc5c4)C3=O)c(F)c2)c1 [Example 50, 4′-[(S)-3-(6-Chloro-naphthalene-2-sulphonylamino)-2-oxo-pyrrolidin-1-yl]-3′-fluoro-biphenyl-3-carboxylic Acid Amide]
Ki: < 10 nM

SMILES: CS(=O)(=O)c1ccccc1-c1ccc(N2CC[C@H](NS(=O)(=O)c3ccc(-c4ccc(Cl)s4)s3)C2=O)c(F)c1 [Example 8, 5′-Chloro-N-{(3S)-1-[3-fluoro-2′-(methylsulfonyl)-1,1′-biphenyl-4-yl]-2-oxopyrrolidin-3-yl}-2,2′-bithiophene-5-sulfonamide]
Ki: < 10 nM

SMILES: CS(=O)(=O)c1ccccc1-c1ccc(N2CC[C@H](N(CC(N)=O)S(=O)(=O)/C=C/c3ccc(Cl)s3)C2=O)nc1 [Example 43, 2-[{[(E)-2-(5-Chlorothien-2-yl)ethenyl]sulfonyl}((3S)-1-{5-[2-(methylsulfonyl)phenyl]pyridin-2-yl}-2-oxopyrrolidin-3-yl)amino]acetamide]
Ki: < 10 nM

SMILES: CN(C)C(=O)c1ccccc1-c1ccc(N2CC[C@H](NS(=O)(=O)/C=C/c3ccc(Cl)s3)C2=O)nc1 [Example 25, 2-{6-[(3S)-3-({[(E)-2-(5-Chlorothien-2-yl)ethenyl]sulfonyl}amino)-2-oxopyrrolidin-1-yl]pyridin-3-yl}-N,N-dimethylbenzamide]
Ki: < 20 nM

SMILES: CS(=O)(=O)c1ccccc1-c1ccc(N2CC[C@H](NS(=O)(=O)c3cccc4cnccc34)C2=O)c(F)c1 [Example 6, N-{(3S)-1-[3-Fluoro-2′-(methylsulfonyl)-1,1′-biphenyl-4-yl]-2-oxopyrrolidin-3-yl}isoquinoline-5-sulfonamide]
Ki: < 1000 nM

SMILES: CS(=O)(=O)c1ccccc1-c1ccc(N2CC[C@H](NS(=O)(=O)c3cc4ccc(Cl)cc4o3)C2=O)c(F)c1 [Example 36, 6-Chloro-N-{(3S)-1-[3-fluoro-2′-(methylsulfonyl)-1,1′-biphenyl-4yl]-2-oxopyrrolidin-3-yl}-1-benzofuran-2-sulfonamide]
Ki: < 10 nM

SMILES: CC(C)(C)OC(=O)N([C@H]1CCN(c2ccc(-c3ccccc3S(C)(=O)=O)cc2F)C1=O)S(=O)(=O)/C=C/c1ccc(Cl)s1 [Example 44, tert-Butyl [(E)-2-(5-chlorothien-2-yl)ethenyl]sulfonly{(3S)-1-[3-fluoro-2′-(methylsulfonyl)-1,1′-biphenyl-4yl]-2-oxopyrrolidin-3-yl}carbamate]
Ki: < 10 nM

SMILES: CS(=O)(=O)c1ccccc1-c1ccc(N2CC[C@H](NS(=O)(=O)c3cc4ncc(Cl)cc4s3)C2=O)c(F)c1 [Example 37, 6-Chloro-N-{(3S)-1-[3-fluoro-2′-(methylsulfonyl)-1,1′-biphenyl-yl]-2-oxopyrrolidin-3-yl}thieno[3,2b]pyridine-2-sulfonamide]
Ki: < 20 nM

— patent US20050059726A1, “Pyrrolidine-2-ones as factor xa inhibitors” (priority 2001, published 2005)
